Laboratory results taken from ChEMBL document CHEMBL3627608, “Crystal structures of human RIP2 kinase catalytic domain complexed with ATP-competitive inhibitors: Foundations for understanding inhibitor selectivity” (Bioorg Med Chem, 2015).

Legend:
[1] = biological target: Ephrin type-A receptor 2 (Homo sapiens) (UniProt P29317); experiment: Inhibition of EPHA2 (unknown origin) at 10 uM after 120 mins P33 radiolabeled kinase activity assay
[2] = biological target: T1, Ephrin type-A receptor 8 (Homo sapiens) (UniProt P29322); experiment: Inhibition of EPHA8 (unknown origin) at 10 uM after 120 mins P33 radiolabeled kinase activity assay
T1 sequence (whole entry): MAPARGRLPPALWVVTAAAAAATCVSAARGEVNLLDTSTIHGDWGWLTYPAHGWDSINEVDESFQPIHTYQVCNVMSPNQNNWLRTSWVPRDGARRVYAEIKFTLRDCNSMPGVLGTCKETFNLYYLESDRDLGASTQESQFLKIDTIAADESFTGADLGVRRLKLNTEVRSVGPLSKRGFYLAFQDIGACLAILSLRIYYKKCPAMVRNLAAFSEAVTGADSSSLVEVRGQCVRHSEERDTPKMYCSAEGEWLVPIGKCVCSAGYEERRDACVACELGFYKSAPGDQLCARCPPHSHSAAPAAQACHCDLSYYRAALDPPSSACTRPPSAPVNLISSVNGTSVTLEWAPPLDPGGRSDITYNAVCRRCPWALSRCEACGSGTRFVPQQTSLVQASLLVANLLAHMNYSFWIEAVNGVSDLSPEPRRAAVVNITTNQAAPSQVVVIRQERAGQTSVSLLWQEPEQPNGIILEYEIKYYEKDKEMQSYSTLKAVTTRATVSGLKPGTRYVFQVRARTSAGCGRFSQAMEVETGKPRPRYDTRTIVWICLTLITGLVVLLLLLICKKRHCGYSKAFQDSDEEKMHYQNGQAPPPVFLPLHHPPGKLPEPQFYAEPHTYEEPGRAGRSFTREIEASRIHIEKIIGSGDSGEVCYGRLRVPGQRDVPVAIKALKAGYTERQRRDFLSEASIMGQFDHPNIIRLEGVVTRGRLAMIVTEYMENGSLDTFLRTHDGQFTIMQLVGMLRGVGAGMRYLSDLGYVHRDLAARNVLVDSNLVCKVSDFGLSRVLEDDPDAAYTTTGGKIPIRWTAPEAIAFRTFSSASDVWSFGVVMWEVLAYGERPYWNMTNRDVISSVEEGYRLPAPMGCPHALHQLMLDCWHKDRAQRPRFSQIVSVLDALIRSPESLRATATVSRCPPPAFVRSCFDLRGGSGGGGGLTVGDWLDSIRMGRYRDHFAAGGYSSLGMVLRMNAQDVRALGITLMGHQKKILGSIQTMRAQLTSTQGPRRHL

[3] = biological target: Serine/threonine-protein kinase PLK1 (Homo sapiens) (UniProt P53350); experiment: Inhibition of PLK1 (unknown origin) at 10 uM after 120 mins P33 radiolabeled kinase activity assay
Serine/threonine-protein kinase PLK1 (Homo sapiens), sequence (P53350 whole entry): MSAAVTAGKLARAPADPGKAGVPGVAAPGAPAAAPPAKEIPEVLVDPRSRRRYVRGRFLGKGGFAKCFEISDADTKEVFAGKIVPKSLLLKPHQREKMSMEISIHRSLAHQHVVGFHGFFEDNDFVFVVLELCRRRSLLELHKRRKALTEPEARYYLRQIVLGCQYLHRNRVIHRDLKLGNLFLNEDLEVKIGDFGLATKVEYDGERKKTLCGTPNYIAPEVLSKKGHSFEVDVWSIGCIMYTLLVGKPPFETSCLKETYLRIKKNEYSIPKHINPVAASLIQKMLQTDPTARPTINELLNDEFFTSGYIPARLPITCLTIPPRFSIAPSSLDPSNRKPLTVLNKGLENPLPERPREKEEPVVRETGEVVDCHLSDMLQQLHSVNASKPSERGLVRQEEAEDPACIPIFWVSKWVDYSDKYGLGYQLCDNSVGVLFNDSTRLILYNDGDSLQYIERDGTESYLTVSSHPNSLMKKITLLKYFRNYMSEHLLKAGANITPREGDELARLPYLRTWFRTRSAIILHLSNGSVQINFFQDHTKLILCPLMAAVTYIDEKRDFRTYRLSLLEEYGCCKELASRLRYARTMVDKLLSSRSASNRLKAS

[4] = biological target: Serine/threonine-protein kinase PLK2 (Homo sapiens) (UniProt Q9NYY3); experiment: Inhibition of PLK2 (unknown origin) at 10 uM after 120 mins P33 radiolabeled kinase activity assay
[5] = biological target: Serine/threonine-protein kinase MARK2 (Homo sapiens) (UniProt Q7KZI7); experiment: Inhibition of MARK2 (unknown origin) at 10 uM after 120 mins P33 radiolabeled kinase activity assay
Serine/threonine-protein kinase MARK2 (Homo sapiens), sequence (Q7KZI7 whole entry): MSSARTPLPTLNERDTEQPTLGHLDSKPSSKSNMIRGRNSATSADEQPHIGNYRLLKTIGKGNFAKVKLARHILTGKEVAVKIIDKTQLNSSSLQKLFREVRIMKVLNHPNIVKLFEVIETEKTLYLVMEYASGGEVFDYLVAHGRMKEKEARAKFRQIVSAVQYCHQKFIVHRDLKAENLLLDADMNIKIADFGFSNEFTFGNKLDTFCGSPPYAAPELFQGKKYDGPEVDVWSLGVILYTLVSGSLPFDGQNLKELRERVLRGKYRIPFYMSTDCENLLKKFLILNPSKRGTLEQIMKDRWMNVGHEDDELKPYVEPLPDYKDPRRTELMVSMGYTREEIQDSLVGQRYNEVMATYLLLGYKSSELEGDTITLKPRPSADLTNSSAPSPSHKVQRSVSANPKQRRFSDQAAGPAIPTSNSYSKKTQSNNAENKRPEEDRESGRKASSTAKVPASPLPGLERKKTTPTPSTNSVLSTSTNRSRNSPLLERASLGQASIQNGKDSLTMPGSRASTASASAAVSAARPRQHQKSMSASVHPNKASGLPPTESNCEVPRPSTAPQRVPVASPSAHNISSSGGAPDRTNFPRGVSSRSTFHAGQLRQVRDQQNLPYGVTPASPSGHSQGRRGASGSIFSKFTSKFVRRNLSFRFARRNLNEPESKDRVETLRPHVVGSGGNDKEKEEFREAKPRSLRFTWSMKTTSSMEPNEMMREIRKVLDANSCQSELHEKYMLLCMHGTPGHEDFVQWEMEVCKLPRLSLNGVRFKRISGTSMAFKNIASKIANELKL

[6] = biological target: T2, Dual specificity mitogen-activated protein kinase kinase 3 (Homo sapiens) (UniProt P46734); experiment: Inhibition of MEK3 (unknown origin) at 10 uM after 120 mins P33 radiolabeled kinase activity assay
T2 sequence (whole entry): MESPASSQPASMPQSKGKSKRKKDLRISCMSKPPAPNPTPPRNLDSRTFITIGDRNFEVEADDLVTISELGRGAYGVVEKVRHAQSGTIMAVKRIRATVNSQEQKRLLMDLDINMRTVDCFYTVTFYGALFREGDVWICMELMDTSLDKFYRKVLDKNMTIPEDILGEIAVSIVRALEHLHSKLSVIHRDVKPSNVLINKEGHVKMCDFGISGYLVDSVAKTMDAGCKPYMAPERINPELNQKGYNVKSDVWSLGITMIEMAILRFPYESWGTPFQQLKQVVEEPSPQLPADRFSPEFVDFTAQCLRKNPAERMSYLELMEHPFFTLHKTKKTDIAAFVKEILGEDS

[7] = biological target: Serine/threonine-protein kinase 33 (Homo sapiens) (UniProt Q9BYT3); experiment: Inhibition of STK33 (unknown origin) at 10 uM after 120 mins P33 radiolabeled kinase activity assay
Serine/threonine-protein kinase 33 (Homo sapiens), sequence (Q9BYT3 whole entry, looked up): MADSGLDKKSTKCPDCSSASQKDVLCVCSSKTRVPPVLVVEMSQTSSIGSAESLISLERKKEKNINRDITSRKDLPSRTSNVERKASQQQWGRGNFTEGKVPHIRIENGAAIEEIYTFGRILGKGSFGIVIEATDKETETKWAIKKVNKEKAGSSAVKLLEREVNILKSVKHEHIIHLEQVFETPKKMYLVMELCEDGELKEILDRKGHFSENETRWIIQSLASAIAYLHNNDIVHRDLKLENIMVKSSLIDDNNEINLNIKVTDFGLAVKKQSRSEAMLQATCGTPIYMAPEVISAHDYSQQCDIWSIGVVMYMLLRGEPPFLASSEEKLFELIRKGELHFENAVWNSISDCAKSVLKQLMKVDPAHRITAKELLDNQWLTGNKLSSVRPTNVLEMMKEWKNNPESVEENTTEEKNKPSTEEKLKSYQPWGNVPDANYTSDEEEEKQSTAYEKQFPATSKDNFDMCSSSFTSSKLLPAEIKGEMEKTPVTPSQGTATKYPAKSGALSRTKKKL

[8] = biological target: Angiopoietin-1 receptor (Homo sapiens) (UniProt Q02763); experiment: Inhibition of TIE2 (unknown origin) at 10 uM after 120 mins P33 radiolabeled kinase activity assay
[9] = biological target: Hepatocyte growth factor receptor (Homo sapiens) (UniProt P08581); experiment: Inhibition of c-MET (unknown origin) at 10 uM after 120 mins P33 radiolabeled kinase activity assay
Hepatocyte growth factor receptor (Homo sapiens), sequence (P08581 whole entry): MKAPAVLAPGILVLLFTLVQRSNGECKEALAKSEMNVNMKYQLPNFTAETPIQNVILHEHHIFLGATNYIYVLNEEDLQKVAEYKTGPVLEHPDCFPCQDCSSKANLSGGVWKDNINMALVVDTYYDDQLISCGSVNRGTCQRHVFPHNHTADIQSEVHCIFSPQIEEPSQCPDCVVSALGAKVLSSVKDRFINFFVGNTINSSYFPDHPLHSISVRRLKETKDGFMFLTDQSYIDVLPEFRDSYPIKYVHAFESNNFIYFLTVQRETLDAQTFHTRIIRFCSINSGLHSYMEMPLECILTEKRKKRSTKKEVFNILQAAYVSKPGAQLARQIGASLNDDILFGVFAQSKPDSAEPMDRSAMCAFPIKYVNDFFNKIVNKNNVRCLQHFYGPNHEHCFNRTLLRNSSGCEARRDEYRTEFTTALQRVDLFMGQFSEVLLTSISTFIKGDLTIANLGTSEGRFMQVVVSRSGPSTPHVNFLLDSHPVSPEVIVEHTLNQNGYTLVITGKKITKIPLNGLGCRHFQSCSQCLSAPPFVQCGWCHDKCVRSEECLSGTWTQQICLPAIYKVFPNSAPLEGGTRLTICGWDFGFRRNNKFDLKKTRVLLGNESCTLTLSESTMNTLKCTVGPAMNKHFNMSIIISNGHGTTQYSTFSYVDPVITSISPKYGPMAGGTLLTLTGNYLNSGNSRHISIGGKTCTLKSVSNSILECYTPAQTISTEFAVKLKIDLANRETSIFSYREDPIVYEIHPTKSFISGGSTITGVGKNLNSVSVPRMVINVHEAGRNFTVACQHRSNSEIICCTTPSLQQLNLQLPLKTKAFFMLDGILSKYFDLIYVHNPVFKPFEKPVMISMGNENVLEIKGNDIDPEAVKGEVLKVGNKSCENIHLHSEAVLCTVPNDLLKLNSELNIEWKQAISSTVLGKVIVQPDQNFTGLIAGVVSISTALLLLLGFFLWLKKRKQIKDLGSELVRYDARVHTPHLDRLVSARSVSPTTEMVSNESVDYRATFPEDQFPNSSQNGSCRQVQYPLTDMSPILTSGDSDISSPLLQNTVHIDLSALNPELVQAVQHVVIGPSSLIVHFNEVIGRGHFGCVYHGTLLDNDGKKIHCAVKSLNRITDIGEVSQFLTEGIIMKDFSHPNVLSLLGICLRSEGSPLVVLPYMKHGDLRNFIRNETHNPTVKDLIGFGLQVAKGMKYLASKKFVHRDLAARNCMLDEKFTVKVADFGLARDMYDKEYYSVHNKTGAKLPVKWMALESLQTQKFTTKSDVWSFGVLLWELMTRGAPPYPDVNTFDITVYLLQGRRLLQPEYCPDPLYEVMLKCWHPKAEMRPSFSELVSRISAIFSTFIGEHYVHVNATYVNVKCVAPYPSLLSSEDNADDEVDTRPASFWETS

[10] = biological target: Proto-oncogene tyrosine-protein kinase Src (Homo sapiens) (UniProt P12931); experiment: Inhibition of c-Src (unknown origin) at 10 uM after 120 mins P33 radiolabeled kinase activity assay
[11] = biological target: T3, Calcium/calmodulin-dependent protein kinase type IV (Homo sapiens) (UniProt Q16566); experiment: Inhibition of CAMK4 (unknown origin) at 10 uM after 120 mins P33 radiolabeled kinase activity assay
T3 sequence (whole entry): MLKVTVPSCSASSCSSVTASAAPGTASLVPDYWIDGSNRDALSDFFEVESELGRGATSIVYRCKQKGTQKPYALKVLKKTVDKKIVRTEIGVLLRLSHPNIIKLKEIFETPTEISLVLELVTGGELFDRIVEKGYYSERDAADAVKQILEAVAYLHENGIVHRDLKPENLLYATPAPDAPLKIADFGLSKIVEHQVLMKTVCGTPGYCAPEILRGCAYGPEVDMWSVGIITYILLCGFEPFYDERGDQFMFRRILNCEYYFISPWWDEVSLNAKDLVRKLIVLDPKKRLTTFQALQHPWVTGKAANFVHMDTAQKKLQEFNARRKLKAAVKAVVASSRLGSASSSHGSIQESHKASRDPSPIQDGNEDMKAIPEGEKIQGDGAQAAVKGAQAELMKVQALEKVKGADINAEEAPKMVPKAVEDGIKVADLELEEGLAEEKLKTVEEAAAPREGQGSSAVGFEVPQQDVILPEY

[12] = biological target: Dual specificity protein kinase CLK3 (Homo sapiens) (UniProt P49761); experiment: Inhibition of CLK3 (unknown origin) at 10 uM after 120 mins P33 radiolabeled kinase activity assay
[13] = biological target: Dual specificity protein kinase CLK4 (Homo sapiens) (UniProt Q9HAZ1); experiment: Inhibition of CLK4 (unknown origin) at 10 uM after 120 mins P33 radiolabeled kinase activity assay
Dual specificity protein kinase CLK4 (Homo sapiens), sequence (Q9HAZ1 whole entry, looked up): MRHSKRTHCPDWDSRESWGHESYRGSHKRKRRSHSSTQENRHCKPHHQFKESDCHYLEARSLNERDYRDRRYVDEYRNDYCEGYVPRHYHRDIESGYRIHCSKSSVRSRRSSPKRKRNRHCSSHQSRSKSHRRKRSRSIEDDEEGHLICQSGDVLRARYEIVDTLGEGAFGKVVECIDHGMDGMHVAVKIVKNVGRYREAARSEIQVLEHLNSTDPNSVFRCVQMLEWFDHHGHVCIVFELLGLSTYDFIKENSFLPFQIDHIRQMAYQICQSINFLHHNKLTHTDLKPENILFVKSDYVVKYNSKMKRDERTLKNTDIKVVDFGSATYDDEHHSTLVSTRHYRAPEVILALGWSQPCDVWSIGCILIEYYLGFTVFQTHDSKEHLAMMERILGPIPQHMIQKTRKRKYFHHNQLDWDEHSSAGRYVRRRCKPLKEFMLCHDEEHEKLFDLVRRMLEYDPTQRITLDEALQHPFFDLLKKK

Ephrin type-A receptor 2 (Homo sapiens), sequence (P29317 whole entry): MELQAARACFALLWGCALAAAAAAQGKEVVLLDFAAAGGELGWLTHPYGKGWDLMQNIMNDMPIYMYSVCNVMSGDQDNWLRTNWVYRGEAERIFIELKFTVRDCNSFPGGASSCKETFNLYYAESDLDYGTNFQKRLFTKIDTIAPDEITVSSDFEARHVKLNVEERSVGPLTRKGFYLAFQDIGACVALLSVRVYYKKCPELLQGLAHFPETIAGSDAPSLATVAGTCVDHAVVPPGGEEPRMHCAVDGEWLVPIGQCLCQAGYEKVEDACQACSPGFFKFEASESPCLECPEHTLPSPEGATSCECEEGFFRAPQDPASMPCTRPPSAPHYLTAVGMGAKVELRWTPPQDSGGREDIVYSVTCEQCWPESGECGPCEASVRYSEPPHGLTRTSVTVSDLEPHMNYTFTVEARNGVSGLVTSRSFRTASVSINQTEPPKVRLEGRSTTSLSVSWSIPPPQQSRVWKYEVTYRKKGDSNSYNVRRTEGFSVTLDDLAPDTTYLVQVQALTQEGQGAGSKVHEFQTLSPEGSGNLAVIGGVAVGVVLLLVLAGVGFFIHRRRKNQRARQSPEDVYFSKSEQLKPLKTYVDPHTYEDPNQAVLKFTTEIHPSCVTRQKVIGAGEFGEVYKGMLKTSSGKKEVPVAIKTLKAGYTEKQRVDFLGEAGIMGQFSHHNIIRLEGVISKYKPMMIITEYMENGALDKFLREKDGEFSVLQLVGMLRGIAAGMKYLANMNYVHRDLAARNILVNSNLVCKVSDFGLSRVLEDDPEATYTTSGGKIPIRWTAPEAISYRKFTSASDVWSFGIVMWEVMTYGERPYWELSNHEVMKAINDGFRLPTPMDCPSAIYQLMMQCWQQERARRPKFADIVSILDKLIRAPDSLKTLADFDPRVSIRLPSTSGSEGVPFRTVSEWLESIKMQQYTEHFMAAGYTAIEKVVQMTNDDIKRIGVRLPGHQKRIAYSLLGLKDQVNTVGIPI

## COCCNC(=O)c1ccc2c(c1)nc(-c1cnc(-c3ccc(Cl)cc3)[nH]1)n2CCOC
[1]
  inhibition: 19.6%
[2]
  inhibition: 12.2%
[3]
  inhibition: -0.52%
[4]
  inhibition: 1.52%
[5]
  inhibition: 2.7%
[6]
  inhibition: 0.04%
[7]
  inhibition: 10.6%
[8]
  inhibition: 4.75%
[9]
  inhibition: 10.9%
[10]
  inhibition: 81.1%
[11]
  inhibition: 6.98%
[12]
  inhibition: 5.68%
[13]
  inhibition: 41.3%

## CS(=O)(=O)c1cccc(Nc2nccc(-c3sc(N4CCOCC4)nc3-c3cccc(NS(=O)(=O)c4c(F)cccc4F)c3)n2)c1
[1]
  inhibition: 68%
[2]
  inhibition: 74.6%
[3]
  inhibition: 5.27%
[4]
  inhibition: 7.04%
[5]
  inhibition: 10.9%
[6]
  inhibition: 21.2%
[7]
  inhibition: 29.3%
[8]
  inhibition: 97%
[9]
  inhibition: 16.8%
[10]
  inhibition: 99.1%
[11]
  inhibition: 29.4%
[12]
  inhibition: 36.7%
[13]
  inhibition: 36.7%

## CC(C)(C)c1cc(NC(=O)Nc2ccc(Oc3ccncc3)cc2)no1
[1]
  inhibition: 97.3%
[2]
  inhibition: 80.5%
[3]
  inhibition: 1.09%
[4]
  inhibition: 2.47%
[5]
  inhibition: 3.84%
[6]
  inhibition: 3.51%
[7]
  inhibition: 36.7%
[8]
  inhibition: 69.2%
[9]
  inhibition: 92.4%
[10]
  inhibition: 85.8%
[11]
  inhibition: 15.2%
[12]
  inhibition: 9.12%
[13]
  inhibition: 36.5%
